The results in this text go back to patent US8617563B2, “Antichlamydial agents” (Duke University, priority 2011, dated 2013).

The test system of one assay is C. caviae CPAF. Kind of assay: GST-IncC cleavage by lysate of C. caviae (GPIC) infected cells. The class given is biochemical. The settings on record: infected whole cell lysate. As for the experimental part:
Cells were infected with an MOI of 1 and treated with CPAF inhibitor (SEQ ID NO:7) or control (SEQ ID NO:11) peptides at 12 hpi, fixed at 24 hpi and analyzed by IF with anti-L2 polyclonal antisera. Inclusion size was determined by measuring the inclusion diameter in μm by confocal microscopy of 50 infected cells. The number of cells with fragmented inclusions was determined by counting the number of infected cells out of 50 with more than one inclusion. (C) Sequence alignment and % sequence identify of full length CPAF and predicted inhibitory peptide sequence between C. trachomatis serovar LGV-L2, Chlamydia muridarum, and Chlamydophila caviae was determined using Geneious software (available at the Geneious website). […] GPIC or C. muridarum infected whole cell protein lysate was preincubated with SEQ ID NO:7 peptide or SEQ ID NO:11 control peptide, mixed with GST-IncC at 37° C., resolved by SDS-PAGE and stained with Coomassie blue. […] Inhibition of C. muridarum (E) and C. ceviae (F) growth was determined by counting the number of recovered IFUs. […] Inclusions were detected by IF with anti-LGV-L2 (A, B, E) antisera or anti-chlamydial LPS (F) monoclonal antibodies, and host nuclei sere detected by staining.

The target of another assay is CPAF (Chlamydia trachomatis serovar D, UniProt O84866). Kind of assay: FRET-based CPAF inhibition assay with model substrate SEQ ID NO:10. The assay is classed as biochemical, C. trachomatis. Further details: 6xHis; made in house; host or cells: E. coli BL21 (DE3), plasmid pET30b-CPAF. As to the method:
FRET-based assays comprised an Abz-tagged model CPAF substrate with an additional C-terminal 3-nitrotyrosine quencher:
The 3-nitrotyrosine moiety quenches Abz fluorescence until substrate cleavage occurs. FRET-based assays were performed in optical plates in a final volume of 100 μL containing 150 mM NaCl, 50 mM Tris pH 7.50, purified CPAF (62.5 nM), varying concentrations of model CPAF substrate (0.5 mM), and varying concentrations of each candidate compound (0-240 μM). IC50 values were determined by pre-incubating CPAF with varying concentrations of candidate compound for 5 min at room temperature prior to initiation of the reaction via the addition of model CPAF substrate. Reactions were initiated and read continuously at 420 nm for 10 minutes using a fluorescence microplate reader. The percentage of substrate converted was calculated using initial velocity over the first 90 seconds and converting RFU to concentration based on a standard curve with Abz followed by analysis in Graffit 6.0 using the equation of Example 8.

In a further assay the test system is IL-8 secretion. The assay is described as follows: IL-8 secretion by infected HeLa cells (ELISA). The assay is classed as cell-based, human. The settings on record: peptide 12.5 μM at 12 hpi, measured 24 hpi. As to the method:
FIG. 9 depicts (A) CPAF inhibitory peptides block the generation of Chlamydia infectious particles. L2-infected HeLa cells were treated at 12 hpi with increasing concentration of peptides. EBs were harvested at 30 hpi and inclusion-forming units (IFU) were quantified on fresh cell monolayers. (B-D) CPAF activity is required to maintain inclusion integrity. The integrity of the inclusion was determined by assessing the immunolocalization of the inclusion membrane marker IncA (red) and Chlamydia (green) (B) and by transmission electron microscopy (C). […] (D) The percentage of vimentin-positive inclusions was determined by IF in infected cells treated with SEQ ID NO:7 and SEQ ID NO:11 (12 hpi) peptides at 24 hpi. (E) Activation of inflammatory cytokines upon inhibition of CPAF activity. Levels of IL-8 supernatants from Chlamydia infected cells treated with peptides as in (B-D) were determined at 24 hpi by ELISA.
Next, the mechanism underlying the block in chlamydial replication was assessed by performing microscopy analyses of Chlamydia-infected cells treated with an inhibitor of CPAF (SEQ ID NO:7). […] IL-8 secretion into the media was determined with a Human IL-8 ELISA kit (available from BioLegend).

The test system of assay [1] is Chlamydia-infected HeLa cells. Kind of assay: Apoptosis markers (AnnexinV staining, Caspase-3 cleavage) in infected HeLa cells. The assay is classed as cell-based, C. trachomatis. The settings on record: peptide 12.5 μM at 12 hpi. As to the method:
FIG. 11 depicts (A) that inhibiting CPAF activity induces host cell death. The indicated peptides (anti-CPAF peptide refers to SEQ ID NO:7) were added to infected cells 12 hpi and the percentage of infected cells with condensed nuclei was quantified at the indicated times. (B-C) Inhibition of CPAF activity induces apoptosis. Infected cells were treated with peptides and the percentage of AnnexinV-FITC positive (propidium iodide (PI) negative) was determined by flow cytometry (B). In parallel samples, cleavage of Caspase-3, a hallmark of apoptosome activation, was monitored by immunoblot analysis. Actin and MOMP are host and bacterial loading controls respectively. […] Infected cells were treated as in (A) in the presence or absence of ZVAD-FMK, labeled with PI and analyzed by flow cytometry. […]
Subsequent experiments tested whether CPAF inhibition led to the onset of apoptosis in infected cells. […] Apoptotic cells were identified with an AnnexinV-FLOUS Staining Kit (available from Roche) and activation of Caspase-1 was determined by labeling active Caspase-1 with a Carboxyfluorescein FLICA Detection Kit (available from Immunochemistry) and analyzed in a FACScanner (available from BD Biosciences). […] Consistent with result, Caspase-3 cleavage, another characteristic of apoptotic cell death, was not detected (FIG. 11C).

Entries after “also recorded” stand apart in the source; their conditions may differ. Where no end group is shown, it is not given here.

CPAF, sequence (O84866 276-601): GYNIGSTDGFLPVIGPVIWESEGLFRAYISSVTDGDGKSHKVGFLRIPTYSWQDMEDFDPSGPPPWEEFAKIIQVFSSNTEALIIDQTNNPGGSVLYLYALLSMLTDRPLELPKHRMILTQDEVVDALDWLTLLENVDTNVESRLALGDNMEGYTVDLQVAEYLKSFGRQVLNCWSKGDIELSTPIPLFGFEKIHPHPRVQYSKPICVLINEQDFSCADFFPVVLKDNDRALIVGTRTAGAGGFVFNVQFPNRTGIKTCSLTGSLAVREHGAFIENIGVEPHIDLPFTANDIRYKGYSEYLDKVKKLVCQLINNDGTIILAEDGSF
CPAF, sequence (O84866 1-234, added parts left off): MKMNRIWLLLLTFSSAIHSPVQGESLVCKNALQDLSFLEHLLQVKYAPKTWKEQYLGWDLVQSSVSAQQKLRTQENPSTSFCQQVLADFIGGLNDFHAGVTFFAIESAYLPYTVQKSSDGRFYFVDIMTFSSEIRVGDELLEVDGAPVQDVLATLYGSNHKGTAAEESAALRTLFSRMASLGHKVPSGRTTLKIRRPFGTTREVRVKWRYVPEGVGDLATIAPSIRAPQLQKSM

“SLFYSPMVPHFWAELRNHYATSGLKRRRRRRRRR-NH2 [SEQ ID NO:7]”: the “Inhibition of C. caviae CPAF” value with C. caviae CPAF was “not sensitive to inhibition; also recorded: but not C. ceviae CPAF”. The substance also had an IC50 at CPAF of 30 ± 6 nM. Also, the IL-8 secretion result in the assay on IL-8 secretion is “increased IL-8 secretion”. Moreover, the “AnnexinV staining of infected cells” value in assay [1] is reported as “did not stain for AnnexinV”. In assay [1] (immunoblot), the “Caspase-3 cleavage in infected cells” value was “not detected”.
